Assay results published in patent US4045556A, “Dipeptide derivatives, process for manufacture and pharmaceutical preparations” (priority 1974, dated 1977).

Legend:
Format in all cases: in vivo
thyrotropin release = thyrotropin release (endocrinological properties), standard tests; conditions: comparison with TRH
Text: The endocrinological properties of typical compounds of the invention, such as L-2-oxo-imidazolidine-4-carbonyl-L-histidyl-L-prolinamide-dihydrate (Compound A) and of orotyl-L-histidyl-L-prolinamide-dihydrate (Compound B) are compared to that of TRH, the thyrotropin-releasing hormone.

[1] = tested on: lowering of body temperature caused by reserpine in mice; test: body temperature test (reserpine hypothermy); parameters: sum of the differences between the measured values and the initial temperature: unit not given here; conditions: for sum of the differences between the measured values and the initial temperature: reserpine 8 mg/kg i.p. 24 h before, rectal temperature every 20 min over 3 h; for effectiveness in counteracting the lowering of body temperature caused by reserpine, compared with TRH: result in words
Method: A series of standard tests were run.
Mice are intraperitoneally injected with 8 mg of reserpine per kilogram of body weight with a solution of reserpine, in 5% of ascorbic acid. After twenty-four hours the temperature of the animal has considerably dropped to a temperature, hereinafter designated as the "initial temperature", which is the reference temperature against which the effect of the compounds is measured. Then the test substance is injectd intraperitoneally. Thereafter, every twenty minutes, the temperature (rectal) is recorded over three hours. The sum of the differences between the measured values and the initial temperature are noted. These are reported below for different dosages.

[2] = tested on: reserpine-pretreated mice (hypomobility); test: test of motility (reserpine hypomotility); parameters: motility measurement: unit not given here; conditions: for motility measurement: mice, reserpine 5 mg/kg i.p. 10-20 h before, photocell activity cage; for stimulation of the mobility of animals: reserpine-pretreated mice, result in words
Method: Test mice were injected ten to twenty hours before the experiment with 5 mg of reserpine per kilogram of body weight, intraperitoneally. The animals developed until the beginning of the experiment a marked hypomobility. The test substances (TRH, A, B and C) are then injected intraperitoneally to groups of ten mice. Another group of ten mice pretreated with reserpine only acted as control group. The movement and activity of the animals are determined, measured and registered, the animals being confined in a photocell activity cage.
The average motility measurement for the reserpine pretreated control animals is 14.2, the untreated mice is 123.

[3] = tested on: toxicity of amphetamine in mice; test: amphetamine group toxicity (mortality rate); conditions: 15 min later amphetamine 7 mg/kg
Method: It is known that the toxicity of amphetamine is increased by administration of anti-depressive compounds, especially those that have a central nervous system stimulating activity, this activity being evidenced by an increased mortality in the test.
The test substances were intraperitoneally injected and fifteen minutes later the test animals were administered amphetamine in a dose of 7 mg per kilogram. […] Those animals which were treated only with amphetamine, as control, were still all alive at that time.

rats [4] = test: wet dog shaking test; conditions: 25 mg/kg i.p.
Method: The stimulant activity of Compound B is also shown in the "wet dog shaking" test of rats (standard test listed below).
Compound B was injected intraperitoneally and the animal activity is periodically observed. The effect of the substance is measured by the average number of shaking movements per minute. The dosage applied is 25 mg of substance/kilogram of body weight.

rats [5] = test: LD50 in rats
Method: (§1) For instance with Substance B the following values of the LD50 were determined: […]

mice = test: LD50 in mice
Method: as §1

[6] = tested on: central nervous system of test animals; test: central stimulation action in pharmacological tests; conditions: equal doses of TRH and compound
Text: The compounds of formula I may be administered orally or parenterally. Their effects are observed quickly. For instance, on parenteral administration the effects occur already after ten minutes.
The most remarkable effects of the new products indicated in pharmacological tests is a central stimulation action.

SMILES | dose required relative to TRH to obtain an equally marked thyrotropin release (thyrotropin release) | sum of the differences between the measured values and the initial temperature ([1]; substance 2 mg/kg i.p.) | sum of the differences between the measured values and the initial temperature ([1]; substance 5 mg/kg i.p.) | sum of the differences between the measured values and the initial temperature ([1]; substance 10 mg/kg i.p.) | sum of the differences between the measured values and the initial temperature ([1]; substance 20 mg/kg i.p.) | effectiveness in counteracting the lowering of body temperature caused by reserpine, compared with TRH [1] | motility measurement ([2]; substance 3 mg/kg i.p.) | motility measurement ([2]; substance 5 mg/kg i.p.) | motility measurement ([2]; substance 10 mg/kg i.p.) | stimulation of the mobility of animals [2] | number of dead mice (in percent) sixty minutes after amphetamine ([3]; substance 10 mg/kg i.p.) [%] | number of dead mice (in percent) sixty minutes after amphetamine ([3]; substance 20 mg/kg i.p.) [%] | number of dead mice (in percent) sixty minutes after amphetamine ([3]; substance 50 mg/kg i.p.) [%] | number of dead mice (in percent) sixty minutes after amphetamine ([3]; substance 100 mg/kg i.p.) [%] | number of dead mice (in percent) sixty minutes after amphetamine ([3]; substance 200 mg/kg i.p.) [%] | average number of shaking movements per minute (rats [4]; 15 minutes after application) | average number of shaking movements per minute (rats [4]; 30 minutes after application) | also measured
NC(=O)[C@@H]1CCCN1C(=O)[C@H](Cc1c[nH]cn1)NC(=O)C1CNC(=O)N1.O.O (stereo partly drawn) [Compound A, L-2-oxo-imidazolidine-4-carbonyl-L-histidyl-L-prolinamide-dihydrate] | ten-times greater dose than TRH | 20.8 | 26.1 | 32.8 | 40.1 | marketly more effective than TRH | 17.0 | 21.7 | 94.1 | stimulate the mobility of animals | 15 | 40 | 60 | 50 | 85 | – | – | –
NC(=O)[C@@H]1CCCN1C(=O)[C@H](Cc1c[nH]cn1)NC(=O)c1cc(=O)[nH]c(=O)[nH]1.O.O [Compound B, orotyl-L-histidyl-L-prolinamide-dihydrate] | ten-times greater dose than TRH | 34.6 | 42.3 | 55.3 | 67.1 | marketly more effective than TRH | 98.0 | 106.0 | 104.0 | stimulate the mobility of animals | 70 | 55 | 75 | 90 | 80 | 5.25 | 3.8 | average number of shaking movements per minute (rats [4]; 45 minutes after application): 3.2; average number of shaking movements per minute (rats [4]; 60 minutes after application): 2.15; average number of shaking movements per minute (rats [4]; 75 minutes after application): 2.1; average number of shaking movements per minute (rats [4]; 90 minutes after application): 1.55; average number of shaking movements per minute (rats [4]; 105 minutes after application): 1.05; average number of shaking movements per minute (rats [4]; 120 minutes after application): 0.6; average number of shaking movements per minute (rats [4]; 135 minutes after application): 0.3; duration of action compared with TRH (rats [4]; result in words): longer acting than TRH; LD50 (rats [5]; intramuscularly): > 4000 mg/kg; LD50 (rats [5]; intraveneously): 1000 mg/kg; LD50 (rats [5]; orally): > 1000 mg/kg; LD50 (mice; intramuscularly): > 4000 mg/kg; LD50 (mice; intraveneously): 1200 mg/kg; LD50 (mice; orally): > 1000 mg/kg; duration of effect relative to TRH [6]: several times longer; strength of stimulating effect on the central nervous system relative to TRH [6]: about five times stronger
NC(=O)[C@@H]1CCCN1C(=O)[C@H](Cc1c[nH]cn1)NC(=O)C1CSCC(=O)N1.O (stereo partly drawn) [Compound C, L-5-oxo-thiomorpholine-3-carbonyl-L-histidyl-L-prolinamide-hydrate] | – | – | – | – | – | – | 51.0 | 72.0 | 69.0 | stimulate the mobility of animals | 60 | 70 | 70 | 70 | 90 | – | – | –
NC(=O)[C@@H]1CCCN1C(=O)[C@H](Cc1c[nH]cn1)NC(=O)[C@@H]1CCC(=O)N1 [TRH, pyroglutamyl-histidyl-proline amide, reference compound] | – | 18.4 | 16.5 | 27.9 | 32.8 | – | 0.9 | 1.2 | 44.0 | – | 20 | 25 | 55 | 65 | 65 | 2.9 | 1.0 | –
